Assay results as given in patent US20260021122A1, “CANNABINOIDS AND USES THEREOF IN TREATMENT OF A DISEASE” (TECHNION RESEARCH & DEVELOPMENT FOUNDATION LIMITED, priority 2022, published 2026).

Legend:
[1] = system: B16F10 tumors; test: Myeloid cell and CD3+ T-cell frequencies in excised B16F10 tumors (spectral flow cytometry); assay type: in vivo, mice; details: CBG 2.5 mg/kg or 3704 3.75 mg/kg i.p., tumors day 14
Protocol: All procedures involving animals were conducted in accordance with the standards approved by the Technion Animal Care and Use Ethics Committee and the studies adhered to the Technion Code for Experimentation on Animals. To induce tumors, B16F10 cells grown to a confluency of ˜75% were resuspended to a concentration of 1×10^6 cells in 200 ul sterile PBS and transplanted subcutaneously into the right flank of 8-10-week-old female WT C57B6/L mice (Envigo, 16.8±0.78 g). After either 24 hours or 3 days, mice were randomly divided into groups and treated as indicated with either a vehicle of Cannabis extract solvent (18:1:1 ratio of DDW+0.9% NaCl, Sigma, Cat #S7653; Cremophor® EL, Cat #238470; Ethanol, Sigma, #Cat 111727), CAN (100 mg/kg), synthetic CBG (2.5 mg/kg) or 3704 (3.75 mg/kg) for 5 days, then 2 days off and again for 4 days. Tumor volume was measured from day 10 to 14 (endpoint) using a vernier caliper and calculated according to the formula […] and all tumors were weighed at the endpoint of the experiments with an analytical scale.
To prepare single-cell suspensions from the tumors, on day 14 the tumors were excised from the mice and placed in Hanks' Balanced Salt solution (HBSS, Sigma; Cat #H6648) containing 20 mg/ml DNase I (Sigma, Cat #D5025), 1 mg/ml collagenase D from Clostridium histolyticum (Sigma-Aldrich, Cat #C5138) and 0.1 mg/ml hyaluronidase (Sigma-Aldrich, Cat #6254). Tumors were mechanically digested using a scalpel and the gentleMACS™M Dissociator (Miltenyi Biotec). The resulting solution was filtered through a 100 μm filter (Alex Red Ltd. Cat #SO SCS1002) and centrifuged for 10 minutes at 400×g. The supernatant was further used for cytokine and chemokine concentration measurements. For the characterization of myeloid cell frequencies in tumors, the cell pellet was further processed as follows: red blood cells were lysed using the red blood lysis buffer (Biological industries, Cat #01-888-1B), which was neutralized by washing with PBS+2% FBS and centrifuging 10 minutes at 400×g. After centrifugation, cells were resuspended in 40% percoll gradient solution (prepared from 100% percoll, Cytiva, #17089101) and then 80% percoll was added on top of the 40% solution without mixing. The cell suspension was centrifuged at room temperature for 30 minutes without acceleration and break at 500×g. Cells were isolated from the interphase between the 40% and 80% percoll solutions and washed with PBS +2% FBS. Finally, cells were stained with extracellular markers for CD3+ T-cells and myeloid cells, and subpopulation frequency was measured by spectral flow cytometry using Cytek® Aurora (Cytek Biosciences). […]

[2] = system: CD8+ T-cells; test: BM-MDSCs CD8+ T-cell co-culture suppression assay; assay type: cell-based, mice
Protocol: Generated bone marrow-MDSC (BM-MDSCs) were treated with conditioned media for 24 hours, then sorted into MO-MDSC and PMN-MDSC subsets. Concurrently, CD8+ T-cells were isolated from the spleens of healthy female WT C57BL/6 mice (8-12-weck-old). To isolate CD8+ T-cells, spleens were mechanically disintegrated and filtered through a 70 um filter (Alex Red Ltd., Cat #SO SCS702), the red blood cells were lysed with the red blood lysis buffer (Biological industries, Cat #01-888-1B). Then, CD8+ T-cells were isolated using the EasySep Mouse CD8+T-cell isolation kit (Stemcell Technologies, Cat # 19853) according to the manufacturer's protocol. The isolation purity was measured by staining cells before and after isolation with CD8-PECY7 (BioLegend, Cat #100722, Clone 53-6.7) by flow cytometry.
Post-sorted MDSC subpopulations were co-cultured in complete RPMI with CD8+ T-cells that are activated with Dynabeads® Mouse T-Activator CD3/CD28 kit (Cat # 11456D; 12.5 μl/1×10^6 cells). After 48 hours, the activation beads were removed and cells were incubated with eBioscience Cell Stimulation Cocktail (Invitrogen, Cat #00-4970-93) for 3 hours and then also with BD GolgiStop™ Protein Transport Inhibitor (BD Biosciences, Cat #51-2092KZ) for the detection of IFN-γ. Intracellular staining of IFN-γ in CD8+ T-cells was achieved by using the BD Cytofix/Cytoperm™ Kit (BD Biosciences, Cat #554714) as stated in the manufacturer's instructions and then staining with IFN-γ-FITC (BioLegend, Cat #505806, Clone XMG1.2) and GranzymeB-FITC (BioLegend, Cat #372206, clone QA16A02).

[3] = system: CSF-1; test: ELISA of secreted CSF-1 in media of A375 cells; assay type: cell-based, human; details: 1.5 μg/ml CBG, 2 μg/ml 3704, 6 μg/ml CAN
Protocol: The media from B16F10 and A375 cell lines, or homogenates from B16F10 tumors, that were treated as indicated for 24 hours, were collected and the protein concentration of MCP-1, MIP-2, C-C Motif Chemokine Ligand 5 (CCL5), and CSF-1 were measured by Quantikine Mouse M-CSF Immunoassay solid-phase ELISA kit (R&D systems, Cat #MMC00) as described in the manufacture's protocol.

[4] = MO-MDSCs exposed to CM of treated B16F10, 48 hours co-incubation

With `CCCCCc1cc(O)c(C/C=C(\C)CCC=C(C)C)c(O)c1` [CBG, cannabigerol] the “CD3 T-cells frequencies in tumors relative to vehicle control” value [1] was “trend of increase in T-cells frequencies”, the “frequencies of MO-MDSC and PMN-MDSC subpopulations in tumors” value [1] was “did not affect” and the “frequency of M2 macrophages in tumors relative to vehicle control” value [1] was “trend of a decreased frequency in M2 macrophages”. The “ratio between M1 and M2 macrophages (M2/M1) relative to vehicle control” value ([1]; calculated for each mouse) was “trend of decreased ratio”, the “CD8+ IFN-γ expression, co-culture with MO-MDSCs” value [2, 4] was “restoration of CD8+ IFN-γ expression in a dose-dependent manner” and the “GrzB expression in CD8+ T-cells co-cultured with MO-MDSCs” value [2, 4] was “trend of restored GrzB expression”. For the same molecule, the “GrzB expression in CD8+ T-cells co-cultured with PMN-MDSCs” value ([2]; PMN-MDSC exposed to CM of treated B16F10, 48 hours co-incubation) was “trend of reduced GrzB expression”, the “CD8+ IFN-γ expression, co-culture with PMN-MDSCs” value ([2]; PMN-MDSCs exposed to CM of treated B16F10, 48 hours co-incubation) was “no significant changes with either of the treatments” and the “CSF-1 secretion by A375 cells” value [3] was “reduced CSF-1 secretion”.
